Where two headings read alike, the source gives them in different places.
Assays:
Format in all cases: in vivo
[1] = tested on: Cabbage Looper (Trichoplusia ni, TRIPNI); test: Bioassay on Cabbage Looper (CL), 128-well diet tray assay; details: Trichoplusia ni
How it was run: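 Mortality of second instar larvae exposed to diet coated with 50 μg/cm^2 compound (acetone-water 90:10 vehicle, dried); 25° C., 5–7 days.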

[2] = tested on: Yellow Fever Mosquito (Aedes aegypti, AEDSAE); test: Bioassay on Yellow Fever Mosquito (YFM), 96-well plate larval assay; details: for YFM (Biological Results, rating): Species YFM (Yellow Fever Mosquito); for YFM rating: Yellow Fever Mosquito, 96-well plate larval assay
How it was run: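 Each well was scored for mortality after 3 days at room temperature under a non-evaporative lid. Test molecules came from DMSO masters (4000 ppm stock) diluted with water/acetone 90:10 and dispensed into six replicate plates, which were then infested with roughly 1-day-old larvae in liver-powder water.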

[3] = tested on: Beet Armyworm (Spodoptera exigua, LAPHEG); test: Bioassay on Beet Armyworm (BAW), 128-well diet tray assay
How it was run: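 Test molecule dissolved in acetone-water 90:10 is applied at 50 μg/cm^2 onto artificial diet and allowed to dry. Second instar larvae, one to five per well, are then added, and trays are vented and kept at 25° C. for five to seven days before mortality is scored.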

[4] = Species CL (Cabbage Looper), read-out: CL (Biological Results, rating)
[5] = Species BAW (Beet Armyworm), read-out: BAW (Biological Results, rating)
[6] = Cabbage Looper, 128-well diet tray assay, read-out: CL rating
[7] = Beet Armyworm, 128-well diet tray assay, read-out: BAW rating

SMILES | pest or weed control at 50 µg/cm2 [1, 4] [%] | YFM (Biological Results, rating) [2] | pest or weed control at 50 µg/cm2 [3, 5] [%] | pest or weed control at 50 µg/cm2 [1, 6] [%] | YFM rating [2] | pest or weed control at 50 µg/cm2 [3, 7] [%]
Cc1cc(N)ccc1NC(=O)c1cc(NC(=O)[C@H]2[C@H](c3cc(Cl)c(Cl)c(Cl)c3)C2(Cl)Cl)ccc1Cl [F286, N-(4-Amino-2-methylphenyl)-2-chloro-5-((1R,3R)-2,2-dichloro-3-(3,4,5-trichlorophenyl)cyclopropane-1-carboxamido)benzamide] | 50 to 100 | A (80-100) | 50 to 100 |  |  | 
Nc1cc(F)c(NC(=O)c2cc(NC(=O)[C@H]3[C@H](c4ccc(Cl)c(Cl)c4)C3(Cl)Cl)ccc2Cl)cc1F [F569, trans-N-(4-Amino-2,5-difluorophenyl)-2-chloro-5-((1R,3R)-2,2-dichloro-3-(3,4-dichlorophenyl)cyclopropane-1-carboxamido)benzamide] |  |  |  | 50 to 100 | A (80-100) | 50 to 100
O=C(Nc1ccc(F)cc1F)c1cc(NC(=O)[C@H]2[C@H](c3cc(F)cc(C(F)F)c3)C2(Cl)Cl)ccc1Cl (relative stereo) [F560, 2-Chloro-5-(trans-2,2-dichloro-3-(3-(difluoromethyl)-5-fluorophenyl)cyclopropane-1-carboxamido)-N-(2,4-difluorophenyl)benzamide] |  |  |  | 50 to 100 | A (80-100) | 50 to 100
Nc1cc(NC(=O)c2cc(NC(=O)[C@H]3[C@H](c4cc(Cl)cc(Cl)c4)C3(Cl)Cl)ccc2Cl)c(F)cc1F [F353, N-(5-Amino-2,4-difluorophenyl)-2-chloro-5-((1R,3R)-2,2-dichloro-3-(3,5-dichlorophenyl)cyclopropane-1-carboxamido)benzamide] | 50 to 100 | A (80-100) | 50 to 100 |  |  | 
O=C(Nc1ccc([S+]([O-])C(F)(F)F)cc1)c1cc(NC(=O)[C@H]2[C@H](c3cc(Cl)cc(Cl)c3)C2(Cl)Cl)ccc1Cl (relative stereo) [PF20, trans-2-Chloro-5-(2,2-dichloro-3-(3,5-dichlorophenyl)cyclopropane-1-carboxamido)-N-(4-((trifluoromethyl)sulfinyl)phenyl)benzamide] |  |  |  | 50 to 100 | A (80-100) | 50 to 100
Cn1ncc2cc(NC(=O)c3cc(NC(=O)[C@H]4[C@H](c5cc(Cl)cc(Cl)c5)C4(Cl)Cl)ccc3Cl)cnc21 (relative stereo) [F476, 2-Chloro-5-(trans)-(2,2-dichloro-3-(3,5-dichlorophenyl)cyclopropane-1-carboxamido)-N-(1-methyl-1H-pyrazolo[3,4-b]pyridin-5-yl)benzamide] |  |  |  | 50 to 100 | A (80-100) | 50 to 100
Cc1cc(F)ccc1NC(=O)c1cc(NC(=O)[C@H]2[C@H](c3ccc(Cl)c(Cl)c3)C2(Cl)Cl)ccc1Cl (relative stereo) [PF46, trans-2-Chloro-5-(2,2-dichloro-3-(3,4-dichlorophenyl)cyclopropane-1-carboxamido)-N-(4-fluoro-2-methylphenyl)benzamide] |  |  |  | 50 to 100 | A (80-100) | 50 to 100
C=Cc1cc([C@H]2[C@H](C(=O)Nc3ccc(Cl)c(C(=O)Nc4ccc(F)cc4)c3)C2(Cl)Cl)ccc1Cl (relative stereo) [F349, 2-Chloro-5-(trans-2,2-dichloro-3-(4-chloro-3-vinylphenyl)cyclopropane-1-carboxamido)-N-(4-fluorophenyl)benzamide] | 50 to 100 | A (80-100) | 50 to 100 |  |  | 
C=Cc1cc([C@H]2[C@H](C(=O)Nc3ccc(Cl)c(C(=O)Nc4ccc(F)cc4F)c3)C2(Cl)Cl)ccc1C(F)(F)F (relative stereo) [F392, 2-Chloro-5-(trans-2,2-dichloro-3-(4-(trifluoromethyl)-3-vinylphenyl)cyclopropane-1-carboxamido)-N-(2,4-difluorophenyl)benzamide] |  |  |  | 50 to 100 | A (80-100) | 50 to 100
O=C(Nc1ccc(F)cc1)c1cc(NC(=O)C2C(c3cc(Cl)cc(Cl)c3)C2(F)Br)ccc1Cl (stereo not drawn) [PF51, 5-(trans)-2-Bromo-3-(3,5-dichlorophenyl)-2-fluorocyclopropane-1-carboxamido)-2-chloro-N-(4-fluorophenyl)benzamide] |  |  |  | 50 to 100 | B (More than 0-Less than 80) | 50 to 100
CN(C(=O)c1cc(NC(=O)[C@H]2[C@H](c3cc(Cl)c(Cl)c(Cl)c3)C2(Cl)Cl)ccc1F)c1ccccc1 (relative stereo) [F68, trans-5-(2,2-Dichloro-3-(3,4,5-trichlorophenyl)cyclopropane-1-carboxamido)-2-fluoro-N-methyl-N-phenylbenzamide] | 50 to 100 | B (More than 0-Less than 80) | 50 to 100 |  |  | 
N#Cc1c(F)cccc1NC(=O)c1cc(NC(=O)[C@H]2[C@H](c3cc(Cl)cc(Cl)c3)C2(Cl)Cl)ccc1Cl (relative stereo) [F298, 2-Chloro-N-(2-cyano-3-fluorophenyl)-5-(trans-2,2-dichloro-3-(3,5-dichlorophenyl)cyclopropane-1-carboxamido)benzamide] | 50 to 100 | A (80-100) | 50 to 100 |  |  | 
O=C(Nc1ccc(F)cc1F)c1cc(NC(=O)[C@H]2[C@H](c3ccc(C(F)F)cc3)C2(Cl)Cl)ccc1Cl (relative stereo) [F565, 2-Chloro-5-(trans-2,2-dichloro-3-(4-(difluoromethyl)phenyl)cyclopropane-1-carboxamido)-N-(2,4-difluorophenyl)benzamide] |  |  |  | 50 to 100 | A (80-100) | 50 to 100
COc1nccc(NC(=O)c2cc(NC(=O)[C@H]3[C@H](c4cc(Cl)cc(Cl)c4)C3(Cl)Cl)ccc2Cl)c1Cl (relative stereo) [F546, 2-Chloro-N-(3-chloro-2-methoxypyridin-4-yl)-5-(trans-2,2-dichloro-3-(3,5-dichlorophenyl)cyclopropane-1-carboxamido)benzamide] |  |  |  | 50 to 100 | A (80-100) | 50 to 100
O=C(Nc1ccnc(Cl)c1)c1cc(NC(=O)[C@H]2[C@H](c3cc(Cl)cc(Cl)c3)C2(Cl)Cl)ccc1Cl [F368, 2-Chloro-N-(2-chloropyridin-4-yl)-5-((1R,3R)-2,2-dichloro-3-(3,5-dichlorophenyl)cyclopropane-1-carboxamido)benzamide] | 50 to 100 | A (80-100) | 50 to 100 |  |  | 
COc1cc([C@H]2[C@H](C(=O)Nc3ccc(Cl)c(C(=O)Nc4ccc(F)cc4)c3)C2(Cl)Cl)cc(F)c1Br (relative stereo) [F539, 5-(trans-3-(4-Bromo-3-fluoro-5-methoxyphenyl)-2,2-dichlorocyclopropane-1-carboxamido)-2-chloro-N-(4-fluorophenyl)benzamide] |  |  |  | 50 to 100 | A (80-100) | 50 to 100
Cc1ccc(C#N)c(NC(=O)c2cc(NC(=O)[C@H]3[C@H](c4cc(Cl)cc(Cl)c4)C3(Cl)Cl)ccc2Cl)c1 (relative stereo) [F230, 2-Chloro-N-(2-cyano-5-methylphenyl)-5-(trans-2,2-dichloro-3-(3,5-dichlorophenyl)cyclopropane-1-carboxamido)benzamide] | 50 to 100 | A (80-100) | 50 to 100 |  |  | 
CC(=O)c1ccc(NC(=O)c2cc(NC(=O)[C@H]3[C@H](c4cc(Cl)cc(Cl)c4)C3(Cl)Cl)ccc2Cl)c(F)c1 (relative stereo) [PF78, trans-N-(4-acetyl-2-fluorophenyl)-2-chloro-5-(2,2-dichloro-3-(3,5-dichlorophenyl)cyclopropane-1-carboxamido)benzamide] |  |  |  | 50 to 100 | A (80-100) | 50 to 100
CNc1ccc(NC(=O)c2cc(NC(=O)[C@H]3[C@H](c4cc(Cl)c(Cl)c(Cl)c4)C3(Cl)Cl)ccc2Cl)c(C)c1 (relative stereo) [F223, trans-2-Chloro-5-(2,2-dichloro-3-(3,4,5-trichlorophenyl)cyclopropane-1-carboxamido)-N-(2-methyl-4-(methylamino)phenyl)benzamide] | 50 to 100 | A (80-100) | 50 to 100 |  |  | 
O=C(Nc1ccc(F)cc1F)c1cc(NC(=O)[C@H]2[C@H](c3ccc(Cl)c(C(F)(F)F)c3)C2(Cl)Cl)ccc1Cl (relative stereo) [F374, 2-Chloro-5-(trans)-(2,2-dichloro-3-(4-chloro-3-(trifluoromethyl)phenyl)cyclopropane-1-carboxamido)-N-(2,4-difluorophenyl)benzamide] |  |  |  | 50 to 100 | A (80-100) | 50 to 100
Nc1c(F)cc(NC(=O)c2cc(NC(=O)[C@H]3[C@H](c4ccc(F)c(Cl)c4)C3(Cl)Cl)ccc2Cl)cc1F [F381, N-(4-Amino-3,5-difluorophenyl)-2-chloro-5-((1R,3R)-2,2-dichloro-3-(3-chloro-4-fluorophenyl)cyclopropane-1-carboxamido)benzamide] |  |  |  | 50 to 100 | A (80-100) | 50 to 100
